Data as given in EPA's ToxValDB 9.5 (doi:10.2903/j.efsa.2010.1692).

Key:
Anas platyrhynchos = details: short-term; oral; feed; mortality
Aphidius rhopalosiphi = details: not reported; reproduction
Apis mellifera = details: acute; duration: 48 hours; oral; unspecified; mortality
Chrysoperla externa = details: not reported; mortality
Lepomis macrochirus = details: acute; duration: 96 hours; mortality
Lymnaea stagnalis = details: chronic/long-term; duration: 41 days
Oncorhynchus mykiss = details: acute; duration: 96 hours; mortality
Pimephales promelas = details: chronic/long-term; duration: 32 days
Tagia sp. = details: acute; mortality

COc1cc(OC)nc(Oc2cccc(Oc3nc(OC)cc(OC)n3)c2C(=O)[O-])n1.[Na+] [Bispyribac-sodium]
LC50 (Anas platyrhynchos): > 2060 mg/kg | LEL (Aphidius rhopalosiphi): 3 g/ha | LD50 (Apis mellifera): > 141 µg/piece | LEL (Chrysoperla externa): 30 g/ha | LC50 (Coturnix coturnix; acute, oral, diet, mortality): > 2080 mg/kg | LD50 (Coturnix coturnix; acute, oral, mortality): > 2250 mg/kg | NOEC (Coturnix coturnix; reproduction developmental, reproduction): 116 mg/kg-day | LC50 (Lepomis macrochirus): > 95 µg/mL | NOEC (Lymnaea stagnalis): ≥ 10 mg/L | LC50 (Oncorhynchus mykiss): > 95 µg/mL | NOEC (Pimephales promelas): ≥ 10 mg/L | LD50 (Rattus norvegicus; acute, oral, mortality): 2640 mg/kg | NOAEL (Rattus norvegicus; chronic, duration: 2 years, hematological): 1.1 mg/kg-day | NOAEC (Rattus norvegicus; reproduction developmental, body weight): 50 mg/kg-day | NOAEL (Rattus norvegicus; reproduction developmental, histopathology: nonneoplastic): 1 mg/kg-day | NOAEL (Rattus norvegicus; subchronic, duration: 90 days, oral, clinical chemistry): 7.2 mg/kg-day | LC50 (Tagia sp.): > 957 mg/kg
